# In patent publication US20250296971A1, “GASTRIC INHIBITORY PEPTIDE RECEPTOR LIGANDS” (priority 2021, published 2025):
# *1 amine or outer side, *2 acyl side, *3 side chain or, on linkers, in order; H or OH if unused. Where a SMILES comes first, the peptide text is derived from it. Bridges are numbered along the chain shown (N, C = ends). [ ]: non-standard residue; d: D form. Pyridine(2,6-diCH2) = c1cc(C[*:1])nc(C[*:2])c1; Nip(3R) = O=C([C@@H]1CCCN([*:1])C1)[*:2]; Phe(4-Cl) = N[C@@H](Cc1ccc(Cl)cc1)C(=O)O; Phe(2-Cl) = N[C@@H](Cc1ccccc1Cl)C(=O)O; Pro(4,4-F2) = O=C(O)[C@@H]1CC(F)(F)CN1; 1Nal = N[C@@H](Cc1cccc2ccccc12)C(=O)O; mXylylene = c1cc(C[*:1])cc(C[*:2])c1; Hyp = O=C(O)[C@@H]1C[C@@H](O)CN1; 2Thi = N[C@@H](Cc1cccs1)C(=O)O; Cit = NC(=O)NCCC[C@H](N)C(=O)O; Pen = CC(C)(S)[C@H](N)C(=O)O; Nle = CCCC[C@H](N)C(=O)O; Thp = NC1(C(=O)O)CCOCC1; Dap = NC[C@H](N)C(=O)O; Aib = CC(C)(N)C(=O)O
# Biological target: T1, GIPR (CHO-K1-hGIPR cells) (Homo sapiens, UniProt P48546)
# T1 construct: host or cells: CHO-K1
# T1 sequence (P48546 22-466): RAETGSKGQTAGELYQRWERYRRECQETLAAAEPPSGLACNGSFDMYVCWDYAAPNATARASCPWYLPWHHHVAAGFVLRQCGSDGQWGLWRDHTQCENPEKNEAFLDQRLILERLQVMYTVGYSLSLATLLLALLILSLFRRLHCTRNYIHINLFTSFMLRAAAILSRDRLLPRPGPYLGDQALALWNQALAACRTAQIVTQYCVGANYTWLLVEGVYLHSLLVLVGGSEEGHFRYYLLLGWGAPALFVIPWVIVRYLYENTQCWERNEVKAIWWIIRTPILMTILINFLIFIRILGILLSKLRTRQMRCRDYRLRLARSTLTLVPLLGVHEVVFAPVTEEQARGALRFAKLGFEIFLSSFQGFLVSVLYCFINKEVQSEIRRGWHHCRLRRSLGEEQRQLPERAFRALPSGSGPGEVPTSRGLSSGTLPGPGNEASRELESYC
# Test: FACS binding assay
# Settings: competition with 20 nM GIP-057, 4° C. for 1 hour, read-out: pIC50 Category (converted)
# Outline: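 CHO-K1 cells stably expressing human GIPR were detached with Accutase, suspended at 500.000 cells per mL in PBS with 1% FCS, and washed ice-cold. Bound peptide was detected with 1 μg/mL APC-streptavidin for 30 min on ice.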
row,Compound,IC50 [nM]
1,CC[C@H](C)[C@@H]1NC(=O)[C@H](CC(C)C)NC(=O)[C@H](C)NC(=O)[C@@H](NC(=O)[C@H](CC(C)C)NC(=O)[C@H](C)NC(=O)[C@@H]2CCCN2C(=O)[C@H](Cc2c[nH]c3ccccc23)NC(=O)[C@H](Cc2c[nH]c3ccccc23)NC(=O)[C@H](CC(=O)O)NC(=O)[C@H](Cc2ccc(O)cc2)NC(=O)[C@@H](N)CCSC)CSCc2cccc(c2)CSC[C@@H](C(N)=O)NC1=O [GIP-335] (H-MYDWWPALCALIC-NH2; linker 9-13 via mXylylene),> 1000
2,CC[C@H](C)[C@@H]1NC(=O)[C@H](CC(C)C)NC(=O)[C@H](C)NC(=O)[C@@H](NC(=O)[C@H](C)NC(=O)[C@H](CCC(=O)O)NC(=O)[C@@H]2CCCN2C(=O)[C@H](Cc2c[nH]c3ccccc23)NC(=O)[C@H](Cc2c[nH]c3ccccc23)NC(=O)[C@H](CC(=O)O)NC(=O)[C@H](Cc2ccc(O)cc2)NC(=O)[C@@H](N)CCSC)CSCc2cccc(c2)CSC[C@@H](C(N)=O)NC1=O [GIP-336] (H-MYDWWPEACALIC-NH2; linker 9-13 via mXylylene),> 1000
3,CSCC[C@H](N)C(=O)N[C@@H](Cc1ccc(O)cc1)C(=O)N[C@@H](CC(=O)O)C(=O)N[C@@H](Cc1c[nH]c2ccccc12)C(=O)N[C@@H](Cc1c[nH]c2ccccc12)C(=O)N1CCC[C@H]1C(=O)N[C@@H](CCC(=O)O)C(=O)N[C@@H](CC(C)C)C(=O)N[C@H]1CSCc2cccc(c2)CSC[C@@H](C(N)=O)NC(=O)[C@H](C)NC(=O)[C@H](CC(C)C)NC(=O)[C@H](C)NC1=O [GIP-337] (H-MYDWWPELCALAC-NH2; linker 9-13 via mXylylene),> 1000
4,"CC[C@H](C)[C@@H]1NC(=O)[C@H](CC(C)C)NC(=O)C(C)(C)NC(=O)[C@@H](NC(=O)[C@H](Cc2ccccc2)NC(=O)[C@H](CCC(=O)O)NC(=O)[C@@H]2CCCN2C(=O)[C@H](Cc2cccc3ccccc23)NC(=O)[C@H](Cc2c[nH]c3ccccc23)NC(=O)[C@H](CC(=O)O)NC(C)=O)CSCc2cccc(c2)CSC[C@@H](C(N)=O)NC1=O [GIP-344, Ac-Asp-Trp-1Ni-Pro-Glu-Phe-[Cys(3MeBn)-Aib-Leu-Ile-Cys]-NH2] (Ac-DW[1Nal]PEFC[Aib]LIC-NH2; linker 7-11 via mXylylene)",> 1000
5,"CC[C@H](C)[C@@H]1NC(=O)[C@H](CC(C)C)NC(=O)C2(CCOCC2)NC(=O)[C@@H](NC(=O)[C@@H](CC(C)C)NC(=O)[C@H](CCC(=O)O)NC(=O)[C@@H]2C[C@@H](O)CN2C(=O)[C@H](Cc2ccccc2Cl)NC(=O)[C@H](Cc2c[nH]c3ccccc23)NC(=O)[C@H](CC(=O)O)NC(C)=O)CSCc2cccc(n2)CSC[C@@H](C(N)=O)NC1=O [GIP-349, Ac-Asp-Trp-Ocf-Hyp-Glu-leu-[Cys(2Lut)-Thp-Leu-Ile-Cys]-NH2] (Ac-DW[Phe(2-Cl)][Hyp]E[dL]C[Thp]LIC-NH2; linker 7-11 via Pyridine(2,6-diCH2))",> 1000
6,"CC[C@H](C)[C@@H]1NC(=O)[C@H](CC(C)C)NC(=O)C2(CCOCC2)NC(=O)[C@@H](NC(=O)[C@@H](CC(C)C)NC(=O)[C@H](CCC(=O)O)NC(=O)[C@@H]2C[C@@H](O)CN2C(=O)[C@H](Cc2ccc(Cl)cc2)NC(=O)[C@H](Cc2c[nH]c3ccccc23)NC(=O)[C@H](CC(=O)O)NC(C)=O)CSCc2cccc(n2)CSC[C@@H](C(N)=O)NC1=O [GIP-350, Ac-Asp-Trp-Pcf-Hyp-Glu-leu-[Cys(2Lut)-Thp-Leu-Ile-Cys]-NH2] (Ac-DW[Phe(4-Cl)][Hyp]E[dL]C[Thp]LIC-NH2; linker 7-11 via Pyridine(2,6-diCH2))",> 1000

# Other lines, results leading:
row,IC50 [nM],Compound
1,> 1000,"CC[C@H](C)[C@@H]1NC(=O)[C@H](CC(C)C)NC(=O)C(C)(C)NC(=O)[C@@H](NC(=O)[C@H](CC(C)C)NC(=O)[C@H](CCC(=O)O)NC(=O)[C@@H]2CCCN2C(=O)[C@H](Cc2c[nH]c3ccccc23)NC(=O)[C@H](Cc2c[nH]c3ccccc23)NC(=O)[C@H](CC(=O)O)NC(C)=O)C(C)(C)SCc2cccc(c2)CSC[C@@H](C(N)=O)NC1=O [GIP-338, Ac-Asp-Trp-Trp-Pro-Glu-Leu-[Pen(3MeBn)-Aib-Leu-Ile-Cys]-NH2] (Ac-DWWPEL[Pen][Aib]LIC-NH2; linker 7-11 via mXylylene)"
2,> 1000,"CC[C@H](C)[C@@H]1NC(=O)[C@H](CC(C)C)NC(=O)C(C)(C)NC(=O)[C@@H](NC(=O)[C@H](CC(C)C)NC(=O)[C@H](CCC(=O)O)NC(=O)[C@@H]2CCCN2C(=O)[C@H](Cc2c[nH]c3ccccc23)NC(=O)[C@H](Cc2c[nH]c3ccccc23)NC(=O)[C@H](CC(=O)O)NC(C)=O)CSCc2cccc(c2)CSC(C)(C)[C@@H](C(N)=O)NC1=O [GIP-339, Ac-Asp-Trp-Trp-Pro-Glu-Leu-[Cys(3MeBn)-Aib-Leu-Ile-Pen]-NH2] (Ac-DWWPELC[Aib]LI[Pen]-NH2; linker 7-11 via mXylylene)"
3,> 1000,"CC[C@H](C)[C@@H]1NC(=O)[C@H](CC(C)C)NC(=O)C(C)(C)NC(=O)[C@@H](NC(=O)[C@H](CC(N)=O)NC(=O)[C@H](CCC(=O)O)NC(=O)[C@@H]2CCCN2C(=O)[C@H](Cc2cccc3ccccc23)NC(=O)[C@H](Cc2c[nH]c3ccccc23)NC(=O)[C@H](CC(=O)O)NC(C)=O)CSCc2cccc(c2)CSC[C@@H](C(N)=O)NC1=O [GIP-340, Ac-Asp-Trp-1Ni-Pro-Glu-Asn-[Cys(3MeBn)-Aib-Leu-Ile-Cys]-NH2] (Ac-DW[1Nal]PENC[Aib]LIC-NH2; linker 7-11 via mXylylene)"
4,> 1000,"CC[C@H](C)[C@@H]1NC(=O)[C@H](CC(C)C)NC(=O)C(C)(C)NC(=O)[C@@H](NC(=O)[C@H](CC(C)C)NC(=O)[C@H](CCC(=O)O)NC(=O)[C@@H]2CC(F)(F)CN2C(=O)[C@H](Cc2cccc3ccccc23)NC(=O)[C@H](Cc2c[nH]c3ccccc23)NC(=O)[C@H](CC(=O)O)NC(C)=O)CSCc2cccc(c2)CSC[C@@H](C(N)=O)NC1=O [GIP-341, Ac-Asp-Trp-1Ni-4Dfp-Glu-Leu-[Cys(3MeBn)-Aib-Leu-Ile-Cys]-NH2] (Ac-DW[1Nal][Pro(4,4-F2)]ELC[Aib]LIC-NH2; linker 7-11 via mXylylene)"
5,> 1000,"CC[C@H](C)[C@@H]1NC(=O)[C@H](CC(C)C)NC(=O)C(C)(C)NC(=O)[C@@H](NC(=O)[C@H](CC(C)C)NC(=O)[C@H](CCC(=O)O)NC(=O)[C@@H]2CCCN(C(=O)[C@H](Cc3cccc4ccccc34)NC(=O)[C@H](Cc3c[nH]c4ccccc34)NC(=O)[C@H](CC(=O)O)NC(C)=O)C2)CSCc2cccc(c2)CSC[C@@H](C(N)=O)NC1=O [GIP-342, Ac-Asp-Trp-1Ni-Rni-Glu-Leu-[Cys(3MeBn)-Aib-Leu-Ile-Cys]-NH2] (Ac-DW[1Nal][Nip(3R)]ELC[Aib]LIC-NH2; linker 7-11 via mXylylene)"
6,> 1000,"CC[C@H](C)[C@@H]1NC(=O)[C@H](CC(C)C)NC(=O)C(C)(C)NC(=O)[C@@H](NC(=O)[C@H](Cc2cccs2)NC(=O)[C@H](CCC(=O)O)NC(=O)[C@@H]2CCCN2C(=O)[C@H](Cc2cccc3ccccc23)NC(=O)[C@H](Cc2c[nH]c3ccccc23)NC(=O)[C@H](CC(=O)O)NC(C)=O)CSCc2cccc(c2)CSC[C@@H](C(N)=O)NC1=O [GIP-343, Ac-Asp-Trp-1Ni-Pro-Glu-Thi-[Cys(3MeBn)-Aib-Leu-Ile-Cys]-NH2] (Ac-DW[1Nal]PE[2Thi]C[Aib]LIC-NH2; linker 7-11 via mXylylene)"
7,> 1000,"CC[C@H](C)[C@@H]1NC(=O)[C@H](CC(C)C)NC(=O)C(C)(C)NC(=O)[C@@H](NC(=O)[C@H](CCCCN)NC(=O)[C@H](CCC(=O)O)NC(=O)[C@@H]2CCCN2C(=O)[C@H](Cc2cccc3ccccc23)NC(=O)[C@H](Cc2c[nH]c3ccccc23)NC(=O)[C@H](CC(=O)O)NC(C)=O)CSCc2cccc(c2)CSC[C@@H](C(N)=O)NC1=O [GIP-345, Ac-Asp-Trp-1Ni-Pro-Glu-Lys-[Cys(3MeBn)-Aib-Leu-Ile-Cys]-NH2] (Ac-DW[1Nal]PEKC[Aib]LIC-NH2; linker 7-11 via mXylylene)"
8,> 1000,"CCCC[C@H](NC(=O)[C@H](CCC(=O)O)NC(=O)[C@@H]1CCCN1C(=O)[C@H](Cc1cccc2ccccc12)NC(=O)[C@H](Cc1c[nH]c2ccccc12)NC(=O)[C@H](CC(=O)O)NC(C)=O)C(=O)N[C@H]1CSCc2cccc(c2)CSC[C@@H](C(N)=O)NC(=O)[C@H]([C@@H](C)CC)NC(=O)[C@H](CC(C)C)NC(=O)C(C)(C)NC1=O [GIP-346, Ac-Asp-Trp-1Ni-Pro-Glu-Nle-[Cys(3MeBn)-Aib-Leu-Ile-Cys]-NH2] (Ac-DW[1Nal]PE[Nle]C[Aib]LIC-NH2; linker 7-11 via mXylylene)"
9,> 1000,"CC[C@H](C)[C@@H]1NC(=O)[C@H](CC(C)C)NC(=O)C(C)(C)NC(=O)[C@@H](NC(=O)[C@H](CCCNC(N)=O)NC(=O)[C@H](CCC(=O)O)NC(=O)[C@@H]2CCCN2C(=O)[C@H](Cc2cccc3ccccc23)NC(=O)[C@H](Cc2c[nH]c3ccccc23)NC(=O)[C@H](CC(=O)O)NC(C)=O)CSCc2cccc(c2)CSC[C@@H](C(N)=O)NC1=O [GIP-347, Ac-Asp-Trp-1Ni-Pro-Glu-Cit-[Cys(3MeBn)-Aib-Leu-Ile-Cys]-NH2] (Ac-DW[1Nal]PE[Cit]C[Aib]LIC-NH2; linker 7-11 via mXylylene)"
10,> 1000,"CC[C@H](C)[C@@H]1NC(=O)[C@H](CC(C)C)NC(=O)C(C)(C)NC(=O)[C@@H](NC(=O)[C@H](CNC(C)=O)NC(=O)[C@H](CCC(=O)O)NC(=O)[C@@H]2CCCN2C(=O)[C@H](Cc2cccc3ccccc23)NC(=O)[C@H](Cc2c[nH]c3ccccc23)NC(=O)[C@H](CC(=O)O)NC(C)=O)CSCc2cccc(c2)CSC[C@@H](C(N)=O)NC1=O [GIP-348, Ac-Asp-Trp-1Ni-Pro-Glu-Dap(Ac)-[Cys(3MeBn)-Aib-Leu-Ile-Cys]-NH2] (Ac-DW[1Nal]PE[Dap](Ac)C[Aib]LIC-NH2; linker 7-11 via mXylylene)"
